What was measured:
pigment-forming cells = assay: Change in morphology and cell number of UVB-aged pigment-forming cells, SA-β-gal staining; assay type: cell-based, human
Protocol: Subsequently, the cells were treated with a compound represented by Chemical Formula E (Sigma-Aldrich Co., Ltd.).

Fibroblast cells = assay: Change in the number of UVB-aged fibroblast cells, SA-β-gal staining; assay type: cell-based, human

O=C(O)[C@]1(O)C[C@@H](O)[C@@H](O)[C@H](O)C1 [Chemical Formula E]
number of cells (pigment-forming cells; UVB-aged pigment-forming cells treated with the compound, FIGS. 1 and 2): the number of cells increased again
ratio of the number of the aged cells stained with SA-β-gal to the total number of cells (pigment-forming cells; UVB-aged pigment-forming cells, FIG. 3): decreased depending on the concentration
number of cells (Fibroblast cells; UVB-aged fibroblasts treated with the compound, FIGS. 4 and 5): the number of cells increased again depending on the concentration
ratio of the number of the aged cells stained with SA-β-gal to the total number of cells (Fibroblast cells; UVB-aged fibroblasts, FIG. 6): decreased depending on the concentration

Reference: patent US20230095026A1, “METHOD FOR STIMULATING AND INDUCING CHANGES IN ENVIRONMENT AROUND AGED SKIN CELLS” (AMOREPACIFIC CORPORATION, priority 2019, published 2023)
